Results reported in patent publication US12090204B2, “Photodynamic therapy compositions and methods of use thereof” (Pinnacle Biologics, Inc., priority 2020, dated 2024).
Where “and” joins values, the source holds several entries; their conditions need not be identical. Equal entries are not always repeated.

What was measured:
N. gonorrhoea (−) = assay: porfimer sodium aPDT, planktonic culture; type: cell-based, Neisseria gonorrhea; conditions: 630 nm, 200 J/cm2, porfimer sodium 125 μg/mL
Procedure: Bacteria were routinely cultured using tryptic soy broth or agar at 37° C. in a 5% CO2 incubator. Bacteria were isolated and suspended with 0.9% NaCl to an Optical Density (OD) of 0.1 taken at 630 nm, to generate the inoculum used for either planktonic or biofilm assays.
Experiments using planktonic cultures were carried out using M. catarrhalis, as a standard for further comparisons and to determine the effective drug concentration, porfimer sodium incubation time and light dose parameters which would provide an effective cell kill at the level of 5-7 logs. Once determined the experiments were repeated for all other bacterial strains examined.
The colony forming units (CFU) per mL of the starting inoculum for every experiment was determined by dilution plating. […]
Bacteria were exposed to 630 nm laser light via a fiber optic with a lens affixed to the distal end to provide a uniform diverging light field. […] Power output of the laser was measured using a UDT/Gamma Scientific 371 optical power meter and an integrating sphere. […]
Biofilms were formed on glass coupons in culture dishes containing a bacterial inoculum for 48 hours under conditions specific to the strain. […] Power output of the laser was measured using a UDT/Gamma Scientific 371 optical power meter and an integrating sphere. […]

[1] = system: Moraxella catarrhalis, Methicillin resistant Staphylococcus aureus (MRSA), Porphymonas gingivalis, Cutibacterium acnes, Peptostreptococcus anaerobius …; assay: aPDT on 48 hour biofilms of various strains, CFU (FIG. 2); type: cell-based
Procedure: Biofilms were formed on glass coupons in culture dishes containing a bacterial inoculum for 48 hours under conditions specific to the strain. The glass coupon attached biofilms were then rinsed with saline, by dipping method, prior to the administration of the porfimer sodium. The biofilms were incubated in the dark for 15-30 minutes with a reconstituted saline solution of porfimer sodium at final concentrations ranging from 75 μg/ml-250 μg/ml. The porfimer sodium treated biofilms were then exposed to light doses at 630 nm light of 50-200 J/cm^2 at a power density of 150 milliwatts per cm^2. The light was delivered using a fiberoptic with a lens attached at the distal end to provide a uniform light field over the area of the samples being treated. The accuracy of the wavelength delivered was routinely checked using an Optometrics USA Inc. 1 nm/div monochromator. Power output of the laser was measured using a UDT/Gamma Scientific 371 optical power meter and an integrating sphere. Control samples were 1) bacterial suspensions without any light or porfimer sodium (NLNP); and 2) porfimer sodium alone in bacterial suspension without any light (NLP) and 3) light alone (L). The light alone control was exposed to the highest light dose used in that particular experiment. Light doses are in joules/cm^2. Power density was 150 mW/cm^2 for each in vitro trial. […]

[2] = system: methicillin-resistant Staphylococcus aureus (MRSA), Staphylococcus aureus ATCC BAA 1768; assay: partial thickness wound model, microbial load in tissue biopsy (Example 4); type: in vivo, Yorkshire pig; conditions: for TISSUE BIOPSY (CFU/mm^2) 24 hr. after treatment 2: individual wounds
Procedure: Bacteria strains were obtained from ATCC (Manassas, VA). Bacteria were propagated from glycerol stock store at −80° C. A stab of the glycerol stock was used to inoculate 5 mL of trypticase soy broth. The cultures were incubated overnight at 37° C. with shaking at 250 rpm. The following day, a portion of overnight culture was used to prepare a streak plate onto an Oxacillin screen plate which was incubated overnight at 37° C. and single colony isolates of freshly plated bacteria were used to prepare bacterial inoculum. The morning of wounding an infection, a portion of overnight culture was used to inoculate 50 mL of trypticase soy broth and the newly inoculated media was incubated at 37° C. with shaking at 250 rpm until log phase growth was reached. The bacteria were pelleted by centrifugation at 4,000 rpm at 4° C. for 10 minutes in a Sorval tabletop centrifuge. The culture supernatant was discarded, and the bacterial pellets were suspended in a volume of sterile PBS to yield a concentration of 2×10^7 CFU/mL.
Tissue samples were obtained using an 8 mm biopsy punch. The biopsy punch was placed into a homogenization tube containing 1 mL of sterile PBS and stainless steel homogenization beads and the tissues were homogenized in a Reich MM300 mixer mill homogenizer. Serial 10-fold dilutions of the tissue homogenates were prepared in sterile PBS and 100 microliters of select dilutions for each wound were plated onto agar plates. The plates were incubated at 35-37° C. and the colonies were enumerated manually. Microbial loads were normalized at CFU/mm^2 of tissue surface area per punch.
This study evaluated the ability of porfimer sodium to reduce/eliminate microbial colonization and biofilm from surgical sites in a partial thickness would healing model. The study was conducted in a single female Yorkshire pig over the course of five days. A dermatome was used to create 20 partial thickness wounds. Sixteen of the wounds were infected with methicillin-resistant Staphylococcus aureus (MRSA), and four were designated as uninfected controls. The wounds were bandaged and the bacterial biofilm allowed to develop for 48 hours.
Designated infected wounds were subjected to two courses of treatment with the test article at a periodicity of 24 hours. […]
Treatments consisted of application of the test article followed by photoactivation with one or two intensities of light, 150 J/cm^2 or 200 J/cm^2 (Table 3). Wounds were evaluated for microbial load prior to each course of treatment, immediately following the final treatment and 24 hours following the final treatment. […]

porfimer sodium was tested, and the Rate of kill (N. gonorrhoea (−)) was 4Log, the “decrease of viability of the bacteria in biofilm” value ([1]; depending on the dose) was 2-7 logs and the “log reduction at the highest light doses (complete reduction, all strains examined)” value ([1]; highest light doses used) was ~7 log reduction. For the same substance, the “Mean microbial load, Tissue” value ([2]; Group 3 (150 J/cm^2), N 6) was 8.13E+03 CFU/mm^2, the “TISSUE BIOPSY (CFU/mm^2) 24 hr. after treatment 2” value ([2]; Group 3 = 150 J/cm2 treatment) was 4.28E+03 CFU/mm^2 and 1.57E+04 CFU/mm^2 and 2.78E+03 CFU/mm^2 and 4.73E+03 CFU/mm^2 and 1.05E+04 CFU/mm^2 and the “Mean microbial load, Tissue” value ([2]; Group 4 (200 J/cm^2), N 3, without wounds L6, R5, R9) was 2.64E+03 CFU/mm^2. The “TISSUE BIOPSY (CFU/mm^2) 24 hr. after treatment 2” value ([2]; Group 4 = 200 J/cm2 treatment) was 6.27E+03 CFU/mm^2 and 5.47E+02 CFU/mm^2 and 1.11E+03 CFU/mm^2 and 8.35E+03 CFU/mm^2 and 3.36E+03 CFU/mm^2.
